Assays:
[1] = molecular target: T1, 2-5A-dependent ribonuclease (Homo sapiens, UniProt Q05823); assay: Activation of purified recombinant human Ribonuclease L by the compound was measured as degradation of [32P]-pC11U2C7
T1 sequence (Q05823 whole entry): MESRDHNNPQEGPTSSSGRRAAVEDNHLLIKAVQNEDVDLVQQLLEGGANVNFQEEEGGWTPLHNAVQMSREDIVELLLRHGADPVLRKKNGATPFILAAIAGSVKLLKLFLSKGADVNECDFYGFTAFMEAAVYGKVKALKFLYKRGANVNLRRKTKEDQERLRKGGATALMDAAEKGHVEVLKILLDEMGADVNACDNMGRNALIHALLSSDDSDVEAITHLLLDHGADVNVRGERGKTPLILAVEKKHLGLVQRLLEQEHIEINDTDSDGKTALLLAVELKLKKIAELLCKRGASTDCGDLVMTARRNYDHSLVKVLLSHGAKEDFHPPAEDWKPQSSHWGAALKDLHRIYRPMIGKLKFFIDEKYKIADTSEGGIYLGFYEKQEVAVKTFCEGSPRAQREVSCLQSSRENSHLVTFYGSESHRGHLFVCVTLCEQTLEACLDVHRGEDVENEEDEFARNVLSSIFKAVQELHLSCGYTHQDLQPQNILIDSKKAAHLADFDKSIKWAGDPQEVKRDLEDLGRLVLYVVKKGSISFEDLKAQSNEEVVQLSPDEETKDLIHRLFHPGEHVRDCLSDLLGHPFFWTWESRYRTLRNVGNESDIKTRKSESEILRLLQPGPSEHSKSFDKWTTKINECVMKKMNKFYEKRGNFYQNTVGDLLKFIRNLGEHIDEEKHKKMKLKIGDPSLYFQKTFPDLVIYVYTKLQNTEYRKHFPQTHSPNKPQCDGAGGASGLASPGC

[2] = molecular target: T1, 2-5A-dependent ribonuclease; assay: Activation of purified recombinant human Ribonuclease L by the compound was measured as degradation of poly (U) 3'[32P]p5'C3'p
[3] = molecular target: T1, 2-5A-dependent ribonuclease; assay: Compound was tested for its binding ability, by displacement of p(A2'p)3A3'[32p]p5'Cp from recombinant human ribonuclease L
[4] = (§1) Relative concentration required to cause 50% degradation of the [32P]-pC11U2C7
[5] = (§2) Relative concentration required to cause 50% degradation of the poly (U) 3'[32P]p5'C3'p
[6] = Ratio of quotient (binding IC50)/(activation EC50 for the poly (U) assay)
[7] = (§3) Relative concentration required to displace 50% of the p(A2'p)3A3'[32p]p5'Cp
[8] = as §1; type: functional
[9] = as §2; type: functional
[10] = as §3; type: functional

Row | SMILES | EC50 [1] | EC50 [2] | IC50 [3] | Crel [4] | Crel [5] | Rn [6] | Crel [7] | Crel [8] | Crel [9] | Crel [10]
1 | Cc1nc(N)c2ncn([C@@H]3O[C@H](COP(=O)(O)O[C@@H]4[C@H](O)[C@@H](COP(=O)(O)O[C@@H]5[C@H](O)[C@@H](COP(=O)(O)OP(=O)(O)OP(=O)(O)O)O[C@H]5n5cnc6c(N)ncnc65)O[C@H]4n4cnc5c(N)ncnc54)[C@@H](O)[C@H]3O)c2n1 | 0.3 nM | 0.24 nM | 0.72 nM | 1.5 | 2 | 0.06 | 0.1 |  |  | 
2 | Cc1nc(N)c2ncn([C@@H]3O[C@H](COP(=O)(O)O)[C@@H](O)[C@H]3OP(=O)(O)OC[C@H]3O[C@@H](n4cnc5c(N)ncnc54)[C@H](OP(=O)(O)OC[C@H]4O[C@@H](n5cnc6c(N)ncnc65)[C@H](O)[C@@H]4O)[C@@H]3O)c2n1 | 0.7 nM | 0.84 nM | 57 nM | 2.7 | 6 | 1.4 | 8 |  |  | 
3 | Cc1nc(N)c2ncn([C@@H]3O[C@H](COP(=O)(O)O[C@@H]4[C@H](O)[C@@H](COP(=O)(O)O[C@@H]5[C@H](O)[C@@H](COP(=O)(O)O)O[C@H]5n5cnc6c(N)ncnc65)O[C@H]4n4cnc5c(N)ncnc54)[C@@H](O)[C@H]3O)c2n1 | 0.2 nM | 0.13 nM | 2.6 nM |  |  | 0.4 |  | 1 | 0.9 | 0.4
4 | Cc1nc(N)c2ncn([C@@H]3O[C@H](COP(=O)(O)O[C@@H]4[C@H](O)[C@@H](COP(=O)(O)O[C@@H]5[C@H](O)[C@@H](COP(=O)(O)O)O[C@H]5n5cnc6c(N)nc(C)nc65)O[C@H]4n4cnc5c(N)nc(C)nc54)[C@@H](O)[C@H]3O)c2n1 | 30 nM | 16 nM | 1060 nM | 120 | 107 | 1.4 | 146 |  |  | 
5 | Cc1nc(N)c2ncn([C@@H]3O[C@H](COP(=O)(O)O[C@@H]4[C@H](O)[C@@H](COP(=O)(O)O[C@@H]5[C@H](O)[C@@H](COP(=O)(O)OP(=O)(O)OP(=O)(O)O)O[C@H]5n5cnc6c(N)nc(C)nc65)O[C@H]4n4cnc5c(N)nc(C)nc54)[C@@H](O)[C@H]3O)c2n1 | 4 nM | 4.6 nM | 105 nM | 20 | 31 | 0.5 | 15 |  |  | 
6 | Nc1ncnc2c1ncn2[C@@H]1O[C@H](COP(=O)(O)O[C@@H]2[C@H](O)[C@@H](COP(=O)(O)O[C@@H]3[C@H](O)[C@@H](COP(=O)(O)O)O[C@H]3n3cnc4c(N)ncnc43)O[C@H]2n2cnc3c(N)ncnc32)[C@@H](O)[C@H]1O |  |  |  | 1 | 1 | 1 | 1 |  |  | 
7 | Cc1nc(N)c2ncn([C@@H]3O[C@H](COP(=O)(O)OP(=O)(O)OP(=O)(O)O)[C@@H](O)[C@H]3OP(=O)(O)OC[C@H]3O[C@@H](n4cnc5c(N)ncnc54)[C@H](OP(=O)(O)OC[C@H]4O[C@@H](n5cnc6c(N)ncnc65)[C@H](O)[C@@H]4O)[C@@H]3O)c2n1 | 0.8 nM | 0.68 nM | 24 nM | 4 | 5 | 0.7 | 3 |  |  | 

Reference: ChEMBL document CHEMBL1133074, “2-Methyladenosine-Substituted 2',5'-oligoadenylates: conformations, 2-5A binding and catalytic activities with human ribonuclease L” (Bioorg Med Chem Lett, 2000)
